The record followed here is paper PMC10703884, “Targeting the COMMD4–H2B protein complex in lung cancer” (British Journal of Cancer, 2023).

One series concerns NSCLC cells. Kind of series: Immunofluorescence γH2AX and MDC1 foci, NSCLC cells. Type of series: cell-based. The following applies: 6 Gy IR, 0.5 to 2 h post-IR, 50 cells per condition, three independent experiments. The method, then:
(§1) For siRNA transfections, cells were transfected with negative control or COMMD4 siRNA #2 (CCAUGUCCCUCUCAGCAGA[dT][dT] MISSION® siRNA, Sigma-Aldrich) using RNAiMax (Life Technologies) as previously described and samples were analysed 48 to 72 h post-transfection. The H2B wild-type (FLAG-H2BWT) and mutant (FLAG-H2BMUT1) expression constructs were generated with the 10-amino acid peptide and the corresponding mutant cloned into the expression vector pCDNA3.1/(+)-N-DYK containing an N-terminal FLAG tag and a C-terminal nuclear localisation signal (AAKRVKLDS) (GenScript). A70K FLAG-COMMD4 expression construct was generated by mutating the corresponding COMMD4-FLAG construct to harbour an A70K mutation (GenScript). Cells were mock-transfected, or transfected with FLAG-H2BWT/FLAG-H2BMUT1, or COMMD4-FLAG/A70K with FuGENE® HD (Promega) using the manufacturer’s protocol and analysed 24 h post-transfection.
NSCLC and control cells transfected with siRNA or H2B plasmids were grown in optical glass bottom 96-well plates (Cellvis). Post-treatment, cells were pre-extracted with ice-cold extraction buffer (20 mM HEPES (pH 8), 20 mM NaCl, 5 mM MgCl2, 1 mM ATP, 0.5% NP40), to remove the soluble proteins and processed as previous. Images were captured using a Delta Vision PDV microscope 100x/1.42 Oil objective (Applied Precision, Inc). All immunofluorescence figures were assembled using Adobe Photoshop. High-content microscopy was performed using the InCell Analyzer 6500 Imaging System (GE Healthcare Life Sciences). Images were analysed using the InCarta Image Analysis software (GE Healthcare Life Sciences) where a minimum of 50 nuclei were quantified per experiment.
Fig. 4 Induction of DSBs in NSCLC and control cells. a Immunofluorescence staining of H1299 NSCLC cells transfected with control or COMMD4 siRNA #2 and FLAG-H2BWT or FLAG-H2BMUT1 is shown. […]
independent experiments where 50 cells were quantified per condition. γH2AX is shown in […]
mean ± SD from three independent experiments where 50 cells were quantified per condition.

In series [1] the test system is HBEC3-KT cells. The series is described as follows: Annexin V-FITC / propidium iodide apoptosis, HBEC3-KT cells. In kind it is cell-based, Human. Particulars: flow cytometry, three independent experiments. On the procedure: as §1, with “A70K FLAG-COMMD4 expression construct was generated by mutating the corresponding COMMD4-FLAG construct to harbour an A70K mutation (GenScript).” left out
The Annexin V-FITC apoptosis kit (United Bioresearch, ALX-850-020-K101, Enzo Life Sciences, Farmingdale, NY, USA) was used to measure viable and apoptotic cells, as previously described. […] CytExpert 2.0 software was used for data acquisition and analysed using the FlowJo v10 software.
Fig. 5 Induction of mitotic catastrophe and apoptosis in NSCLC cells. a Emerin and phalloidin staining respectively in three NSCLC and control HBEC3-KT cells. […] Asterix (*) denotes *P < 0.05 and ** P < 0.005 from 100 cells counted. […] The live cells were stained with Annexin V-FITC and propidium iodide and analysed by flow cytometer. […]
In general terms: Flow cytometry measures light scatter and fluorescence of single cells or particles in a stream.

Series [2] relates to H460, H1299 and CRL5889 NSCLC cells. Kind of series: Clonogenic cell viability after IR, NSCLC cells. The following applies: varying IR doses, 7–10 days recovery, three independent experiments, compared to control siRNA or FLAG-H2BMUT1/mock. Type of series: cell-based. The method, then: (§2) H1299, CRL5889 and H460 cells were cultured in Roswell Park Memorial Institute (RPMI) 1640 medium (Life Technologies) containing 10% foetal bovine serum (Thermo Fisher Scientific). Human bronchial epithelial cells (HBEC3-KT) were maintained in keratinocyte serum-free medium supplemented with epidermal growth factor and bovine pituitary extract (Life Technologies). The histology features and origin of all cell lines used have been previously described. Cell lines were authenticated using STR profiling. Cells were grown in a humidified incubator at 37 °C/5% CO2 atmosphere. All cell lines were verified to be free of mycoplasma contamination.
(§3) Irradiations were done at room temperature using a ^137Cs source (Gammacell 40 Exactor [MDS Nordion]; dose rate 1.1 Gy/min). Phalloidin-Atto 488 was purchased from Sigma-Aldrich and Hoechst 33342 was purchased from Thermo Fisher Scientific.
(§4) For siRNA transfections, cells were transfected with negative control or COMMD4 siRNA #2 (CCAUGUCCCUCUCAGCAGA[dT][dT] MISSION® siRNA, Sigma-Aldrich) using RNAiMax (Life Technologies) as previously described and samples were analysed 48 to 72 h post-transfection. […] Cells were mock-transfected, or transfected with FLAG-H2BWT/FLAG-H2BMUT1, or COMMD4-FLAG/A70K with FuGENE® HD (Promega) using the manufacturer’s protocol and analysed 24 h post-transfection. […]

The subject of series [3] is HBEC3-KT cells. The series is described as follows: Clonogenic cell viability after IR, HBEC3-KT cells. In kind it is cell-based, Human. The following applies: varying IR doses, 7–10 days recovery, three independent experiments. The method, then:
as §2, §3, §4

The subject of series [4] is HBEC3-KT cells. The series is described as follows: Immunofluorescence γH2AX and MDC1 foci, HBEC3-KT cells. Particulars: 6 Gy IR, 50 cells per condition, three independent experiments. In kind it is cell-based, Human. The method, then:
as §1
NSCLC and control cells transfected with siRNA or H2B plasmids were grown in optical glass bottom 96-well plates (Cellvis). Post-treatment, cells were pre-extracted with ice-cold extraction buffer (20 mM HEPES (pH 8), 20 mM NaCl, 5 mM MgCl2, 1 mM ATP, 0.5% NP40), to remove the soluble proteins and processed as previous. […] Images were analysed using the InCarta Image Analysis software (GE Healthcare Life Sciences) where a minimum of 50 nuclei were quantified per experiment. […]

The next series deals with T1, recombinant GST-COMMD4 (Homo sapiens, UniProt Q9H0A8).
T1 construct: purchased Abnova H00054939-P01
T1 sequence (Q9H0A8 whole entry): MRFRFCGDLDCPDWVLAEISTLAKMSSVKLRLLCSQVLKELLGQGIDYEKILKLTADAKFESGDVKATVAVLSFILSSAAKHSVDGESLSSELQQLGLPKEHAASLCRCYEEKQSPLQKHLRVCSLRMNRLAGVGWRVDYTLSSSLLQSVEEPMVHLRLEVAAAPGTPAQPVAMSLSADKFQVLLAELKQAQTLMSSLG
Kind of series: ELISA, binding of H2B peptide and recombinant COMMD4. The following applies: H2B peptide 10 μg/ml on NeutrAvidin plate 2 h; recombinant GST-COMMD4 at different concentrations 45 min, room temperature; anti-COMMD4 antibody, chemiluminescent substrate. The method, then:
ELISA was performed using NeutrAvidin High Binding Capacity Coated 96-Well Plates (Thermo Scientific, 15507) according to the manufacturer’s instructions. Briefly, to the appropriate well, added 100 μl of H2B peptide at 10 μg/ml for 2 h at room temperature. Washed each well three times with NP40 buffer, blocked the plate overnight with 4% BSA in NP40 buffer and the next day added different concentrations of recombinant GST-COMMD4 as shown, for 45 min at room temperature. Washed each well three times with NP40 buffer and added anti-COMMD4 antibody for 45 min at room temperature followed by the enzyme-linked secondary antibody for 30 min at room temperature followed by detection using SuperSignal ELISA Pico Chemiluminescent Substrate (Thermo Scientific, 37070).
(In general: An ELISA detects its analyte on a solid surface through an enzyme-linked reagent.)

A short description of series [5]: Circular dichroism (CD) of H2B peptides. Type of series: physicochemical. The following applies: 0.1 mg/ml peptide, 50% TFE, 10 mM phosphate pH 7.2, 50 mM sodium fluoride, 20 °C, average of five scans. The method, then:
For Circular Dichroism (CD), […] and H2BMUT1 peptides were resuspended at a concentration of 0.1 mg/ml in 50% 2,2,2-Trifluoroethanol (Sigma, T63002) with 10 mM Phosphate Buffer pH 7.2 and 50 mM sodium fluoride. The buffer solutions were filtered and degassed before diluting the peptides. The peptides were loaded into a 1 mm path-length quartz cuvette. CD spectra were measured at 20 °C in the far-UV from 250 to 190 nm with a Jasco J-1500 spectropolarimeter at a 0.1 nm interval with a 20 nm/min scan rate. All CD data represent an average of five scans, and the background was corrected with the buffer-matched diluent. The results were converted to the units of molar ellipticity vs. wavelength.
A general note: Circular dichroism is widely used to follow secondary structure.

Another series has as its system COMMD4-H2B interaction. The series is described as follows: COMMD4 pull-down competition (COMMD4-H2B interaction). In kind it is biochemical. Particulars: 1 μg (or amount specified) peptide pre-incubated with recombinant COMMD4 (300 ng) 30 min 4 °C, then 1 μg recombinant H2B 30 min 4 °C, immunoblot. On the procedure: 300 ng of recombinant GST-COMMD4 (Abnova, H00054939-P01) was incubated with 1 μg of recombinant H2B (NEB, M2505S) in NP40 buffer for 30 min at 4 °C. For competition experiments, 1 μg (or the amount specified) of the N-terminal biotin-tagged H2B peptide (GenScript) was pre-incubated with recombinant COMMD4 for 30 min at 4 °C prior to addition of recombinant H2B. Proteins were captured using Streptavidin Dynabeads (ThermoFisher) or Protein A Dynabeads (ThermoFisher), washed three times in NP40 buffer, resuspended in 4X Leammli sample buffer (250 mM Tris pH 6.8, 8% SDS, […], 0.02% bromophenol blue, 8% β-mercaptoethanol) and immunoblotted with the indicated antibodies.
Fig. 2 In vitro binding of the H2B peptide. a In vitro binding of biotin-tagged H2B 10-amino acid peptide (H2BWTpep) and H2BMUT1pep (mutation of key amino acid) with COMMD4. […] FLAG-H2BWT and FLAG-H2BMUT1 were immunoprecipitated from HEK293T cells and the co-eluting proteins were immunoblotted with antibodies against […] and FLAG.

For another series, the system named is H2B. Kind of series: FLAG pull-down, COMMD4-FLAG versus A70K mutant with H2B. In kind it is binding. Particulars: compared to COMMD4-FLAG. The method, then: as §1
Co-immunoprecipitations were performed as previously summarised, using ice-cold NP40 buffer. Assays for co-immunoprecipitations were performed at 4 °C from HEK293T, transiently expressing the FLAG-H2B WT or MUT plasmid. Proteins were captured using anti-FLAG M2 Dynabeads (ThermoFisher) and washed three times in NP40 buffer prior to analysis. […]

Entries after “also recorded” stand apart in the source; their conditions may differ. No end group written: not given here.

Turning to “FLAG-H2BMUT1: corresponding mutant cloned into expression vector containing an N-terminal FLAG tag and a C-terminal nuclear localisation signal ({FLAG}-SFVNDKFERIAAKRVKLDS)”, the “γH2AX and MDC1 (DNA repair) foci” value in the series with NSCLC cells was “not FLAG-H2BMUT1, displayed a similar phenotype to COMMD4 siRNA depleted cells and had significantly more DNA repair foci”. For the same substance, the induction of apoptosis result in the series on HBEC3-KT cells [1] is “no significant induction of apoptosis”.

Regarding “CCAUGUCCCUCUCAGCAGA[dT][dT] [COMMD4 siRNA, reference compound]”, the “sensitivity to ionising radiation (clonogenic viability)” value is reported as “hypersensitive to IR compared to control siRNA treated cells” in series [2] and “neither hypersensitive to IR” in the series on HBEC3-KT cells [3]. Besides, the “γH2AX and MDC1 (DNA repair) foci” value was “significantly more γH2AX and MDC1 foci” with NSCLC cells; “exhibited increased DNA repair foci” in the series on HBEC3-KT cells [4].

Turning to SFVNDIFERI [H2BWTpep], the EC50 at recombinant GST-COMMD4 was 70 nM.

SFVNDKFERI [H2BMUT1pep]: in series [5] (1 mm path length), the peak ellipticity maximum is reported as 190 nm and the peak minimum is listed as 202 nm. The “secondary structure / helicity” value in series [5] is listed as “possesses little helical structure even in 50% TFE”. In the series on COMMD4-H2B interaction, the “effect on COMMD4-H2B interaction” value was “did not affect the COMMD4-H2B interaction; also recorded: maintains the COMMD4-H2B interaction”.

On to “A70K COMMD4-FLAG: COMMD4-FLAG construct mutated to harbour an A70K mutation”, for which the “binding with H2B of COMMD4 mutant” value in the series with H2B is listed as “showed reduced binding with H2B”.

The term EC50 denotes the concentration at which the effect is half-maximal.
